Results published in the CheMixHub viscosity set.

Test: xn = mol fraction of the nth substance listed

CCCNCCC + CCCCOCCOCCO
viscosity [mPa·s], 100 kPa
Settings	298.15 K	303.15 K	308.15 K
x2 = 0.05007	0.5938	0.5507	0.5178
x2 = 0.1002	0.6906	0.6377	0.5959
x2 = 0.1502	0.8054	0.7394	0.6889
x2 = 0.2	0.9457	0.8562	0.7964
x2 = 0.3001	1.339	1.183	1.093
x2 = 0.3999	1.79	1.571	1.437
x2 = 0.4999	2.311	1.998	1.819
x2 = 0.5997	2.952	2.519	2.248
x2 = 0.7	3.584	3.042	2.71
x2 = 0.7999	4.119	3.507	3.124
x2 = 0.8998	4.617	3.926	3.5
x2 = 0.9491	4.857	4.132	3.683

CC(=O)[O-].CCCC[NH2+]CCO + CCCCn1cc[n+](C)c1.COP(=O)([O-])OC
viscosity [mPa·s], 101 kPa
Settings	x1 = 0.1014	x1 = 0.2979	x1 = 0.4067	x1 = 0.4989	x1 = 0.8011	x1 = 0.8913
293.15 K	730.5	–	–	502.5	741.5	–
298.15 K	–	392.5	359.5	–	–	632.5

CC(=O)[O-].CCCC[NH2+]CCO + CCCCn1cc[n+](C)c1.O=S(=O)([N-]S(=O)(=O)C(F)(F)F)C(F)(F)F
Settings	viscosity [mPa·s]
308.15 K, 101 kPa, x1 = 0.901	343.5

CC(C)O + CCCO
viscosity [mPa·s], 101 kPa
Settings	293.15 K	298.15 K	303.15 K	313.15 K	323.15 K
x2 = 0.1001	2.369	–	1.776	1.349	1.048
x2 = 0.172	–	2.066	–	–	–
x2 = 0.2006	2.359	–	1.777	1.36	1.066
x2 = 0.2956	2.344	–	1.773	1.365	1.077
x2 = 0.33	–	1.997	–	–	–
x2 = 0.3999	2.322	–	1.766	1.368	1.084
x2 = 0.4993	2.3	–	1.758	1.368	1.086
x2 = 0.5	–	2.02	–	–	–
x2 = 0.6	2.278	–	1.75	1.367	1.088
x2 = 0.665	–	1.985	–	–	–
x2 = 0.6973	2.258	–	1.744	1.368	1.089
x2 = 0.754	–	1.985	–	–	–
x2 = 0.7993	2.238	–	1.739	1.368	1.091
x2 = 0.826	–	1.972	–	–	–
x2 = 0.8994	2.219	–	1.734	1.369	1.096

CC1CCCCC1 + CCCO
303.15 K, 101.33 kPa
Settings	viscosity [mPa·s]
x1 = 0.0998	1.42
x1 = 0.2182	1.188
x1 = 0.4212	0.918
x1 = 0.576	0.777
x1 = 0.7398	0.677
x1 = 0.9	0.637

CCCNCCC + CCCO
viscosity [mPa·s], 101.33 kPa
Settings	x1 = 0.1059	x1 = 0.2109	x1 = 0.3116	x1 = 0.401	x1 = 0.513	x1 = 0.5913	x1 = 0.7036	x1 = 0.8073	x1 = 0.885
303.15 K	1.601	1.425	1.268	1.138	0.994	0.8936	0.7675	0.6649	0.5972
313.15 K	1.261	1.126	1.009	0.8968	0.7829	0.7121	0.6195	0.5442	0.4899

CCOC(=O)[C@@H](O)[C@H](O)C(=O)OCC + CCCO
viscosity [mPa·s], 101 kPa
Settings	x1 = 0.1	x1 = 0.2	x1 = 0.2999	x1 = 0.3999	x1 = 0.5001	x1 = 0.5999	x1 = 0.7	x1 = 0.7996	x1 = 0.9
293.15 K	3.256	5.15	8.204	13.19	21	32.75	52.88	84.67	135.1
298.15 K	2.832	4.359	6.759	10.53	16.09	24.37	37.73	57.79	88.2
303.15 K	2.467	3.7	5.586	8.415	12.64	18.48	27.67	40.91	60.18
308.15 K	2.164	3.17	4.671	6.886	10.06	14.35	20.86	29.93	42.64
313.15 K	1.913	2.731	3.92	5.661	8.093	11.3	16.05	22.45	31.15
318.15 K	1.694	2.385	3.38	4.782	6.694	9.164	12.71	17.37	23.52
323.15 K	1.52	2.108	2.94	4.092	5.623	7.561	10.28	13.77	18.27

CCOC(=O)c1ccccc1 + CCCO
viscosity [mPa·s], 101.3 kPa
Settings	x1 = 0.0548	x1 = 0.1155	x1 = 0.1829	x1 = 0.2582	x1 = 0.3431	x1 = 0.4393	x1 = 0.5493	x1 = 0.6763	x1 = 0.8246
303 K	1.619	1.637	1.645	1.657	–	1.688	1.703	1.72	1.734
308 K	1.471	1.486	1.499	1.51	1.525	1.537	1.552	1.568	1.579
313 K	1.326	1.337	1.351	1.364	1.372	1.386	1.403	1.414	1.432
318 K	1.235	1.247	1.257	1.272	1.28	1.291	1.302	1.314	1.327
323 K	1.175	1.188	1.194	1.205	1.21	1.219	1.227	1.235	1.244

O=C(O)c1cccc([N+](=O)[O-])c1 + CCCO
viscosity [mPa·s], 101 kPa
Settings	x1 = 0.219	x1 = 0.22	x1 = 0.244	x1 = 0.261	x1 = 0.2797	x1 = 0.2805
318.15 K	3.007	3.007	3.286	3.62	3.951	3.95
323.15 K	2.632	–	–	–	–	3.456

CCCNCCC + CCCOCCO
viscosity [mPa·s], 101.33 kPa
Settings	298.15 K	308.15 K	318.15 K
x2 = 0.0247	0.53	0.463	0.401
x2 = 0.075	0.592	0.511	0.435
x2 = 0.125	0.657	0.564	0.473
x2 = 0.1902	0.753	0.636	0.529
x2 = 0.2692	0.889	0.737	0.602
x2 = 0.3692	1.09	0.883	0.709
x2 = 0.4334	1.228	0.985	0.782
x2 = 0.476	1.329	1.058	0.833
x2 = 0.5289	1.463	1.153	0.903
x2 = 0.623	1.686	1.318	1.021
x2 = 0.723	1.94	1.507	1.157
x2 = 0.8063	2.136	1.656	1.269
x2 = 0.9114	2.293	1.78	1.362
x2 = 0.9598	2.322	1.846	1.413
x2 = 0.9731	2.333	1.863	1.428

CC(C)O + CCO
101 kPa
Settings	viscosity [mPa·s]
298.15 K, x2 = 0.214	1.796
298.15 K, x2 = 0.393	1.607
298.15 K, x2 = 0.565	1.445
298.15 K, x2 = 0.725	1.299
298.15 K, x2 = 0.869	1.182
308.15 K, x2 = 0.5	1.186
313.15 K, x2 = 0.5	1.066
318.15 K, x2 = 0.5	0.9542

COc1ccc(/C=C/C(=O)c2ccccc2)cc1 + CCO
viscosity [mPa·s], 101 kPa
Settings	x1 = 0.000144	x1 = 0.000288	x1 = 0.0005755	x1 = 0.00115	x1 = 0.002298	x1 = 0.004586
298.15 K	1.12	1.173	1.263	1.34	1.364	1.439
303.15 K	1.019	1.072	1.162	1.239	1.263	1.338
308.15 K	0.9181	0.971	1.061	1.138	1.162	1.237

O=C(C=Cc1ccccc1)c1ccccc1 + CCO
viscosity [mPa·s], 101 kPa
Settings	x1 = 0.000144	x1 = 0.000288	x1 = 0.0005755	x1 = 0.00115	x1 = 0.002298	x1 = 0.004586
298.15 K	1.102	1.141	1.216	1.256	1.283	1.356
303.15 K	1.01	1.049	1.115	1.156	1.181	1.255
308.15 K	0.9181	0.9561	1.014	1.056	1.079	1.154
